Laboratory results as given in patent US20260217697A1, “COMPOUNDS COMPRISING HETEROARYL RINGS AND COMPOSITIONS AND METHODS THEREOF” (lonGen Therapeutics Co., Ltd., priority 2022, published 2026).

Biological target: T1, hTRPV3 (Homo sapiens, UniProt Q8NET8)
T1 construct: The commercially available plasmid with the full-length cDNA of hTRPV3 (791 aa) (NM_001258205.2); host or cells: HEK293T
T1 sequence (Q8NET8 1-791 isoform Q8NET8-2): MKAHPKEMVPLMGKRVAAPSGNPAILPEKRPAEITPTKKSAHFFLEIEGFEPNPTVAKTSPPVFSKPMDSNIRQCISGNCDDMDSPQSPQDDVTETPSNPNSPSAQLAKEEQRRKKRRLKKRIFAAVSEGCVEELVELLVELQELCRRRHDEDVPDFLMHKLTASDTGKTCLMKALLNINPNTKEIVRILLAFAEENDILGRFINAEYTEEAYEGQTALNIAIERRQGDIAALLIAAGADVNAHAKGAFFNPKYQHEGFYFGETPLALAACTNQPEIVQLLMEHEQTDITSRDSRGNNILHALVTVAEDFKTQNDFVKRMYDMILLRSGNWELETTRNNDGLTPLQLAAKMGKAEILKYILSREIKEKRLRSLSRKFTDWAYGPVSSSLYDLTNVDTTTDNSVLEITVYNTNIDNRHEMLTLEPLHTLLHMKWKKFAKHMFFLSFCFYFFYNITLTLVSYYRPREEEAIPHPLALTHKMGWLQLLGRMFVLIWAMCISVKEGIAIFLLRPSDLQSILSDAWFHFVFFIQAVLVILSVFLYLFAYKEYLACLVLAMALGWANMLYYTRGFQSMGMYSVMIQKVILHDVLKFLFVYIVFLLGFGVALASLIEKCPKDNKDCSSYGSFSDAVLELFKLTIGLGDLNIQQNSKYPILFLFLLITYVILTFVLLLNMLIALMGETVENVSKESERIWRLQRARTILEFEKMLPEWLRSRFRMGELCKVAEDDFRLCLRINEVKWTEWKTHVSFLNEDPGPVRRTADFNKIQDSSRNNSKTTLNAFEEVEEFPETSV
Assay: Whole-cell patch-clamp recording of hTRPV3 current in transfected HEK293T cells (2-APB induced)
Format: cell-based
Conditions: current induced by 300 μM 2-APB, compounds tested up to 10 μM, room temperature
Procedure, shortened: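 HEK293T cells transiently expressing full-length hTRPV3, recorded by whole-cell patch clamp 18 h post-transfection at room temperature, with 130 mM NaCl/0.3 mM EDTA/3 mM HEPES pH 7.4 on both sides. Holding potential 0 mV; 400-ms steps to +80 and −80 mV every 2 s. Block of 2-APB-evoked current, tested up to 10 μM, fitted to Hill equation for IC50.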

COc1ncnc(OC)c1C(=O)Nc1nc2c(s1)C1(CCNCC1)Oc1cc(C(F)(F)F)ccc1-2 [compound 45, 4,6-dimethoxy-N-(7-(trifluoromethyl)spiro[chromeno[4,3-d]thiazole-4,4′-piperidin]-2-yl)pyrimidine-5-carboxamide]
IC50: ≥ 10000 nM

COc1ncnc(OC)c1C(=O)Nc1nc2c(s1)C1(CCN(C(C)=O)CC1)Oc1cc(C(F)(F)F)ccc1-2 [compound 64, N-(1′-acetyl-7-(trifluoromethyl)spiro[chromeno[4,3-d]thiazole-4,4′-piperidin]-2-yl)-4,6-dimethoxypyrimidine-5-carboxamide]
IC50: 100 to 1000 nM

C=CCCC1(C)Oc2cc(C(F)(F)F)ccc2-c2nc(NC(=O)c3c(OC)ncnc3OC)sc21 (stereo not drawn) [compound 44, N-(4-(but-3-en-1-yl)-4-methyl-7-(trifluoromethyl)-4H-chromeno[4,3-d]thiazol-2-yl)-4,6-dimethoxypyrimidine-5-carboxamide]
IC50: < 100 nM

CCC1(CC)Oc2cc(C)ccc2-c2nc(NC(=O)c3c(OC)ncnc3OC)sc21 [compound 124, N-(4,4-diethyl-7-methyl-4H-chromeno[4,3-d]thiazol-2-yl)-4,6-dimethoxypyrimidine-5-carboxamide]
IC50: 100 to 1000 nM

COc1ncnc(OC)c1C(=O)Nc1nc2c(s1)Cc1ccc(Cl)cc1-2 [compound 7, N-(5-chloro-8H-indeno[1,2-d]thiazol-2-yl)-4,6-dimethoxypyrimidine-5-carboxamide]
IC50: 1000 to 10000 nM

COc1ncnc(OC)c1C(=O)Nc1nc2c(s1)COc1cc(OC(=O)C(C)(C)C)ccc1-2 [compound 14, 2-(4,6-dimethoxypyrimidine-5-carboxamido)-4H-chromeno[4,3-d]thiazol-7-yl pivalate]
IC50: 1000 to 10000 nM

COc1ncnc(OC)c1C(=O)Nc1nc2c(s1)C1(CN(C3CCC3)C1)Oc1cc(C(F)(F)F)ccc1-2 [compound 159, N-(1-cyclobutyl-7′-(trifluoromethyl)spiro[azetidine-3,4′-chromeno[4,3-d]thiazol]-2′-yl)-4,6-dimethoxypyrimidine-5-carboxamide]
IC50: < 100 nM

COc1ncnc(OC)c1C(=O)Nc1nc2c(s1)Cc1cc(C(F)(F)F)ccc1-2 [compound 84, 4,6-dimethoxy-N-(6-(trifluoromethyl)-8H-indeno[1,2-d]thiazol-2-yl)pyrimidine-5-carboxamide]
IC50: 1000 to 10000 nM

COc1ncnc(OC)c1C(=O)Nc1nc2c(s1)C1(CCN(C(=O)OC(C)(C)C)CC1)Oc1cc(C(F)(F)F)ccc1-2 [compound 27, tert-butyl 2-(4,6-dimethoxypyrimidine-5-carboxamido)-7-(trifluoromethyl)spiro[chromeno[4,3-d]thiazole-4,4′-piperidine]-1′-carboxylate]
IC50: < 100 nM

COc1ncnc(OC)c1C(=O)Nc1nc2c(s1)CCc1cc(C(F)(F)F)ccc1-2 [compound 22, 4,6-dimethoxy-N-(7-(trifluoromethyl)-4,5-dihydronaphtho[1,2-d]thiazol-2-yl)pyrimidine-5-carboxamide]
IC50: ≥ 10000 nM

COc1ncnc(OCCN(C)C)c1C(=O)Nc1nc2c(s1)C1(COC1)Oc1cc(C(C)C)ccc1-2 [compound 147, 4-(2-(dimethylamino)ethoxy)-N-(7-isopropylspiro[chromeno[4,3-d]thiazole-4,3′-oxetan]-2-yl)-6-methoxypyrimidine-5-carboxamide]
IC50: 1000 to 10000 nM

CCC1(CC)Oc2cc(C(F)(F)F)ccc2-c2nc(NCc3c(OC)ncnc3OC)sc21 [compound 110, N-((4,6-dimethoxypyrimidin-5-yl)methyl)-4,4-diethyl-7-(trifluoromethyl)-4H-chromeno[4,3-d]thiazol-2-amine]
IC50: 1000 to 10000 nM

CCOC(=O)[C@H]1CC[C@@]2(CC1)Oc1cc(Br)ccc1-c1nc(NC(=O)c3c(OC)ncnc3OC)sc12 [compound 129]
IC50: 100 to 1000 nM

COC(=O)CN1CC2(C1)Oc1cc(C(F)(F)F)ccc1-c1nc(NC(=O)c3c(OC)ncnc3OC)sc12 [compound 163]
IC50: < 100 nM

CCC1(CC)Oc2cc(C(F)(F)F)ccc2-c2nc(NC(=O)c3cc(OC)nnc3Cl)sc21 [compound 89, 3-chloro-N-(4,4-diethyl-7-(trifluoromethyl)-4H-chromeno[4,3-d]thiazol-2-yl)-6-methoxypyridazine-4-carboxamide]
IC50: ≥ 10000 nM

COc1ncnc(OC)c1C(=O)Nc1nc2c(s1)C1(CN(C(=O)c3ccccc3)C1)Oc1cc(C(F)(F)F)ccc1-2 [compound 75, N-(1-benzoyl-7′-(trifluoromethyl)spiro[azetidine-3,4′-chromeno[4,3-d]thiazol]-2′-yl)-4,6-dimethoxypyrimidine-5-carboxamide]
IC50: 100 to 1000 nM

COc1ncnc(OC)c1C(=O)Nc1nc2c(s1)-c1ccc(C(F)(F)F)cc1OC21CCS(=O)(=O)CC1 [compound 141, N-(1′,1′-dioxido-7-(trifluoromethyl)-2′,3′,5′,6′-tetrahydrospiro[chromeno[3,4-d]thiazole-4,4′-thiopyran]-2-yl)-4,6-dimethoxypyrimidine-5-carboxamide]
IC50: 1000 to 10000 nM

CCCCOC(=O)N1CC2(C1)Oc1cc(C(F)(F)F)ccc1-c1nc(NC(=O)c3c(OC)ncnc3OC)sc12 [compound 77, butyl 2′-(4,6-dimethoxypyrimidine-5-carboxamido)-7′-(trifluoromethyl)spiro[azetidine-3,4′-chromeno[4,3-d]thiazole]-1-carboxylate]
IC50: 100 to 1000 nM

CCC1(CC)Oc2cc(C(F)F)ccc2-c2nc(NC(=O)c3c(OC)ncnc3OC)sc21 [compound 105, N-(7-(difluoromethyl)-4,4-diethyl-4H-chromeno[4,3-d]thiazol-2-yl)-4,6-dimethoxypyrimidine-5-carboxamide]
IC50: 100 to 1000 nM

COc1ncnc(OC)c1C(=O)Nc1nc2c(s1)C(CCc1ccccc1)Oc1cc(C(F)(F)F)ccc1-2 (stereo not drawn) [compound 29, 4,6-dimethoxy-N-(4-phenethyl-7-(trifluoromethyl)-4H-chromeno[4,3-d]thiazol-2-yl)pyrimidine-5-carboxamide]
IC50: 100 to 1000 nM

CCC1(CC)Oc2cnccc2-c2nc(NC(=O)c3c(OC)ncnc3OC)sc21 [compound 107]
IC50: 1000 to 10000 nM
